Data from PMC7486280 (Journal of medicinal chemistry, 2020).
Values belong to the molecule of their own block, whether it stands above or below them. Where a SMILES comes first, the peptide text is derived from it. [ ]: non-standard residue; d: D form. The star is where a group is joined. ξ: configuration not given here. ξαMeP = CC1(C(=O)O)CCCN1; PhAc = O=C(Cc1ccccc1)*

Key:
NTMT1 [1] = target: T1, NTMT1 (Homo sapiens, UniProt Q9BV86); test: SAH hydrolase; assay type: biochemical; settings: for fold loss in inhibition compared to 6 (BM30): IC50 ratio vs BM30; for inhibitory activity for NTMT1 (in words): up to 100 μM
T1 sequence (Q9BV86 1-223): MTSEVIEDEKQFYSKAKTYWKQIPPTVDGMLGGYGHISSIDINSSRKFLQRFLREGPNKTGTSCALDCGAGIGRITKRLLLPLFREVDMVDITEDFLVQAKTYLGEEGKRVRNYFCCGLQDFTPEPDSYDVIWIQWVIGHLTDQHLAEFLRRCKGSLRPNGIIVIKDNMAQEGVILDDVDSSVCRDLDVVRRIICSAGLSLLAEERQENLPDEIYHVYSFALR

PRMT1 = PRMT1 (Homo sapiens, UniProt Q99873); test: SAH hydrolase-coupled fluorescence selectivity assay, PRMT1; assay type: biochemical
[2] = system: panel of 41 MTases (NTMT1/2, PKMTs, PRMTs, DNMTs); test: Selectivity panel of 41 MTases; assay type: biochemical
NTMT1 [3] = target: T1, NTMT1; test: Inhibition mechanism, SAHH-coupled fluorescence assay; assay type: biochemical
HCT116 cells = test: Cell permeability evaluation by MALDI-MS; assay type: cell-based; settings: 100 μM, listed as BM30
G9a = target: T2, G9a (Homo sapiens, UniProt Q96KQ7); test: SAH hydrolase-coupled fluorescence selectivity assay, G9a; assay type: biochemical
T2 sequence (Q96KQ7 1-1210): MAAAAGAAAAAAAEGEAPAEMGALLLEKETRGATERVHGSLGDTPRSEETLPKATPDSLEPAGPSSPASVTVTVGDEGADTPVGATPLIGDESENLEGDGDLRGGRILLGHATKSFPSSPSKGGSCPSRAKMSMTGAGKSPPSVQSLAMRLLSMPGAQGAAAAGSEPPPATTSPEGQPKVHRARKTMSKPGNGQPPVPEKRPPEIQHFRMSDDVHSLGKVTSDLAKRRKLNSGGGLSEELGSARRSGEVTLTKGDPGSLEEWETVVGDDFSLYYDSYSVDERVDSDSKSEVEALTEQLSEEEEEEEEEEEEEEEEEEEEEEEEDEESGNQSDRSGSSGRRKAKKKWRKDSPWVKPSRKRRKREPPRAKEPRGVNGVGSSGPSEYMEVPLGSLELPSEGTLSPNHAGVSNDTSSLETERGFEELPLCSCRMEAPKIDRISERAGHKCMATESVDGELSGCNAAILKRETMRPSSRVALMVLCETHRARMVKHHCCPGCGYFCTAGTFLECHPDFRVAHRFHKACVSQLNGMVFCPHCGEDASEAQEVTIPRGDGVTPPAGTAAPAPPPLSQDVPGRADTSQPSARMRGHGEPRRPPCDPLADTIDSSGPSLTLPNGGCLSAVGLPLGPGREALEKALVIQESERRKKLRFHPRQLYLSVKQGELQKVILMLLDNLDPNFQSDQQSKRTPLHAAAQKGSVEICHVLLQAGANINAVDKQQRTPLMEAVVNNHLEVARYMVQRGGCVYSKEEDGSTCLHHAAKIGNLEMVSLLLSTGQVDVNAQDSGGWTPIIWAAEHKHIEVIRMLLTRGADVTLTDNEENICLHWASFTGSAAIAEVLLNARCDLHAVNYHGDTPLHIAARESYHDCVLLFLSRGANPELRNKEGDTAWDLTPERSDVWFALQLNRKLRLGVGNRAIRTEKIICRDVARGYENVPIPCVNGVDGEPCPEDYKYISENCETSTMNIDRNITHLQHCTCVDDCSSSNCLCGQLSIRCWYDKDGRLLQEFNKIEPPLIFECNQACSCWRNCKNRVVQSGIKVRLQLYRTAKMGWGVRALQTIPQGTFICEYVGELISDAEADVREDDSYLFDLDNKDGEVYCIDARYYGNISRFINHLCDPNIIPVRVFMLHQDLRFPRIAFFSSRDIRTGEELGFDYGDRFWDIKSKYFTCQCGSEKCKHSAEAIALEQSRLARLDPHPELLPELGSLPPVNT

NTMT1 [4] = target: T1, NTMT1; settings: read-out: Kd for NTMT1; peptide substrate; cited from earlier work

Sequence of PRMT1 (Q99873 whole entry, species assumed): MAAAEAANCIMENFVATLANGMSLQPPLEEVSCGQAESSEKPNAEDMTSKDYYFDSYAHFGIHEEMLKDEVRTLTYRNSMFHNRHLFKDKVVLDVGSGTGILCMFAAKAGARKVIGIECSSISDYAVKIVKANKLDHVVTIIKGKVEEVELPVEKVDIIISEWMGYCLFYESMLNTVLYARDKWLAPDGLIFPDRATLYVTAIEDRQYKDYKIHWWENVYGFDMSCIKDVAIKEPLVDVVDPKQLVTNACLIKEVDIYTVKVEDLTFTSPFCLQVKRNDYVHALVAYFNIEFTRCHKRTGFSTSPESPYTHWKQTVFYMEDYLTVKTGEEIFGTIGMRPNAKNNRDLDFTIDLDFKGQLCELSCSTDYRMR

Molecule: N=C(N)NCCC[C@H](NC(=O)[C@H](CCCCN)NC(=O)[C@@H]1CCCN1C(=O)Cc1ccc(O)cc1)C(N)=O [Compound 6]
- fold increased activity compared to 5 (NTMT1 [1]; IC50 ratio vs compound 5): approximately 7 fold
- IC50 (PRMT1): > 100000 nM
- inhibition of NTMT1 versus NTMT2 in the panel ([2]; 100 μM): comparable inhibition against both NTMT1 and NTMT2
- inhibition against the remaining 39 MTases ([2]; 100 μM, duplicates): very marginal inhibition
- selectivity for NTMT1/2 over other MTases of the panel ([2]; compared to PKMTs, PRMTs and DNMTs): over 100 fold
- inhibition pattern with respect to peptide substrate RCC1-6 (SPKRIA) (NTMT1 [3]; varying RCC1-6, fixed SAM): competitive
- inhibition pattern with respect to cofactor SAM (NTMT1 [3]; varying SAM, fixed RCC1-6): noncompetitive
- cellular level / penetration by MS detection (HCT116 cells): did not display any

Molecule: N=C(N)NCCC[C@H](NC(=O)[C@H](CCCCN)NC(=O)[C@@H]1CCCN1C(=O)CCc1ccc(N)cc1)C(N)=O [Compound 11]
- fold loss in inhibition compared to parent compound 7 (NTMT1 [1]; IC50 ratio vs compound 7): 3 fold

Molecule: CC1(C(=O)N[C@@H](CCCCN)C(=O)N[C@@H](CCCNC(=N)N)C(N)=O)CCCN1C(=O)Cc1ccccc1 (stereo partly drawn) [Compound 13] (PhAc-[ξαMeP]-Lys-Arg-NH2)
- inhibitory activity for NTMT1 (in words) (NTMT1 [1]): completely lost the inhibitory activity

Molecule: NCCCC[C@H](NC(=O)[C@H](CCCCN)NC(=O)[C@@H]1CCCN1C(=O)Cc1ccc(O)cc1)C(N)=O [Compound 17]
- inhibitory activity for NTMT1 (in words) (NTMT1 [1]): negligible difference in inhibition compared to BM30

Molecule: C[C@@H](O)[C@H](NC(=O)[C@H](CCCCN)NC(=O)[C@@H]1CCCN1C(=O)Cc1ccc(O)cc1)C(N)=O [Compound 18]
- fold loss in inhibition compared to 6 (BM30) (NTMT1 [1]): 5 fold

Molecule: C[C@H](NC(=O)[C@H](CCCCN)NC(=O)[C@@H]1CCCN1C(=O)Cc1ccc(O)cc1)C(N)=O [Compound 19]
- fold loss in inhibition compared to 6 (BM30) (NTMT1 [1]): 5 fold

Molecule: NCCCC[C@H](NC(=O)[C@@H]1CCCN1C(=O)Cc1ccc(O)cc1)C(=O)NCC(N)=O [Compound 20]
- fold loss in inhibition compared to 6 (BM30) (NTMT1 [1]): ~14 fold

Molecule: NCCCC[C@H](NC(=O)[C@@H]1CCCN1C(=O)Cc1ccc(O)cc1)C(N)=O [Compound 21]
- fold loss in inhibition compared to 6 (BM30) (NTMT1 [1]): 18 fold

Molecule: YPKRIA
- Kd (NTMT1 [4]): 100 nM

Continued, values first:

- fold loss in inhibition compared to 6 (BM30) (NTMT1 [1]): 5 fold
Molecule: N=C(N)NCCC[C@H](NC(=O)[C@H](CCCCN)NC(=O)[C@@H]1CCCN1C(=O)CCc1ccc(O)cc1)C(N)=O [Compound 10]

- inhibitory activity for NTMT1 (in words) (NTMT1 [1]): did not show any inhibitory activity
Molecule: N=C(N)NCCC[C@H](NC(=O)[C@H](CCCCN)NC(=O)[C@@H]1CCCN1CCc1ccc(O)cc1)C(N)=O [Compound 12]

- inhibitory activity for NTMT1 (in words) (NTMT1 [1]): did not exhibit any inhibitory activity
Molecule: N=C(N)NCCC[C@H](NC(=O)[C@H](CCCCN)NC(=O)c1cccc(NC(=O)Cc2ccc(O)cc2)c1)C(N)=O [Compound 14]

- inhibitory activity for NTMT1 (in words) (NTMT1 [1]): did not exhibit any inhibitory activity
Molecule: N=C(N)NCCC[C@H](NC(=O)[C@H](CCCCN)NC(=O)c1ccccc1NC(=O)Cc1ccc(O)cc1)C(N)=O [Compound 15]

- inhibition for G9a (in words) (G9a): exhibited inhibition
Molecule: N=C(N)NCCC[C@@H](NC(=O)[C@H](CCCCN)NC(=O)[C@@H]1CCCN1C(=O)Cc1ccc(O)cc1)C(N)=O [Compound 22]
